From EP3335720A1, “C-DI-GMP BINDING PEPTIDES” (Universität Basel, priority 2016, dated 2018)
Where two headings read alike, the source gives them in different places. Peptide text beside a SMILES is read from it. * marks the point of attachment. FITC = O=C1OC2(c3ccc(O)cc3Oc3cc(O)ccc32)c2ccc(NC(=S)*)cc21

Key:
[1] = system: P. aeruginosa PAO1 biofilms; type: cell-based
Method: The parameter "MBIC50", as used herein, is defined as the peptide concentration leading to 50% biofilm reduction in a standard biofilm assay. Preferably, the medium used for the assay is Mueller-Hinton broth (MHB), since most bacteria can be grown in this medium, and it allows a reliable comparison of MBIC values. MBIC50 values in accordance with the invention are obtained by growing P. aeruginosa at 37°C in presence of different concentrations of peptides, without agitation, for 24 h, followed by staining the adherent biofilm, dissolving the biofilm and measuring the OD600.
The standard biofilm assay (O'Toole G.A., Pratt L.A., Watnick P.I., Newman D.K., Weaver V.B., and Kolter R. 1999. Genetic approaches to study of biofilms. Methods Enzymol. 310: 91-109) was followed with minor modification, i.e. Mueller-Hinton II broth (MHB) (Becton Dickinson #212322) was used instead of lysogenic broth (LB) or minimal medium. MHB is preferred by The European Committee on Antimicrobial Susceptibility Testing (EUCAST) as the medium for MIC determination because most bacteria can be grown in this medium, which allows a more reliable MIC values comparisons. The MBIC50 was defined as the peptide concentration leading to 50% biofilm reduction (de la Fuente-Nunez C., Korolik V., Bains M., Nguyen U., Breidenstein E. B. M., Horsman S., Lewenza S., Burrows L., Hancock, R. E. W. (2012) Inhibition of bacterial biofilm formation and swarming motility by a small synthetic cationic peptide. 56: 2696-2704). MBIC50 values were obtained by growing P. aeruginosa (PAO1) biofilms in 96-well plates (Falcon #353072) in presence of peptides at 37°C without agitation in MHB. After 24 hours, bacterial growth was evaluated by measuring the OD600 in a microtiter plate reader (EL800, BioTek). Afterwards, the plates were rinsed three times with demineralized water to remove non-attached bacteria. The adherent biofilms were stained with 0.1% Crystal Violet and subsequently dissolved in 20% acetic acid. Dissolved biofilms were quantified by measuring the OD600 in a microtiter plate reader.

[2] = system: epithelial HeLa cells; experiment: Cytotoxicity assays: resazurin reduction assay and LDH release assay; type: cell-based, human; conditions: 24 hours, Figures 11 and 12
Method: The cytotoxicity of the peptides was determined with a Resazurin cell viability assay (Sigma #R7017). In a 96-well plate (Corning #3904), monolayers of epithelial HeLa ATCC CCL-2 cells were grown in 100 µl growth medium (DMEM (Sigma #D5796) containing 10% FCS). Afterwards, the medium was removed and either replaced by DMEM/10% FCS containing 2-fold serial diluted peptides with a highest concentration of 256 mg/L. After 24 hours, the medium was removed and replaced by 100 µl fresh growth medium. 1% Triton X-100 (Sigma) was used as positive lysis control. 20 µl of resazurin solution (0.1 mg/ml) was added. After 2 hours, the fluorescence signal was recorded using a microplate reader (Synergy H4 BioTek) with an excitation wavelength of 560 nm and emission wavelength 590 nm.
Cells were prepared and treated with peptides as described for the resazurin reduction assay. 24 hours after peptide treatment, control wells were treated with 1% Triton X-100 (Sigma) as lysis control. LDH release was measured using the LDH Cytotoxicity Detection Kit (Clontech). Absorbance was measured at 490 nm using a microplate reader (Synergy H4 BioTek). The percentage of cell death was calculated as follows: (LDH peptide treated - LDH untreated)/(LDH total lysis - LDH untreated)* 100.

[3] = system: P. aeruginosa (PAO1); experiment: P. aeruginosa growth in presence of peptides (growth curves); type: cell-based; conditions: 64 mg/L peptides, 37°C, MHB; Figure 10
Method: Growth curves were obtained by growing P. aeruginosa (PAO1) in 96-well plates (Falcon #353072) in presence of 64 mg/L peptides at 37°C with agitation in Mueller-Hinton II Broth (MHB) (BD #212322) using an Epoch 2 microplate reader (BioTek).

[4] = target: c-di-GMP; experiment: Binding affinity of peptides to c-di-GMP by isothermal titration calorimetry (ITC); conditions: for Dissociation constant: pH 8.0
Method: Binding affinities of peptides to c-di-GMP were measured using isothermal titration calorimetry (ITC) on a VP-ITC MicroCalorimeter (MicroCal, Northampton, MA, USA). Peptides, c-di-GMP and buffer (50 mM Tris-HCl, pH 8.0, 100 mM NaCl) were degassed for 15 min prior to filling into sample cell and syringe. All experiments were carried out at a temperature of 15°C. The data were evaluated using ITC Data Analysis in ORIGIN provided by the manufacturer.

[5] = in vitro; type: in vitro ADME, P. aeruginosa PAO1; conditions: cells or culture medium
Method: (§1) P. aeruginosa PAO1 lysate, which was used to test peptide stability, was prepared by the following procedure. 500 ml of cells grown overnight at 37°C were harvested by centrifugation at 5000 rpm, 10 min at 4°C. Pellets were resuspended in 60 ml PBS (Gibco) and centrifuged at 5000 rpm, 10 min at 4°C. Pellets were resuspended again in 20 ml PBS and centrifuged at 5000 rpm, 10 min at 4°C. Cells were disrupted using high-pressure cell disrupter (Stansted Fluid Power). Cell lysate was separated from cell debris by centrifugation at 14,000 rpm for 20 min at 4°C. Lysate was diluted 10 fold to yield a protein content of about 1 mg/ml. The lysate was used for all experiments described below.
The stability of peptides was tested against P. aeruginosa PAO1 cell lysate. […] Samples were analyzed on 10-20% Mini-PROTEAN tris-tricine gels (BIO-RAD #4563115) according to manufacturer's recommended protocol. Band intensities were quantified using the program ImageJ (Schneider, C. A., Rasband, W. S. and Eliceiri, K. W. 2012. NIH Image to ImageJ: 25 years of image analysis. Nature methods. 9: 671-675).
The protocol mentioned above was also used to compare stability of peptides in the presence of c-di-GMP. […] 14 µl samples were removed at 2, 4, 6 and 8 hours after incubation at 37°C and analyzed on tris-tricine gels as described above.

[6] = in vitro; type: in vitro ADME, P. aeruginosa PAO1
Method: as §1
The stability of peptides was tested against P. aeruginosa PAO1 cell lysate. About 1 to 3 µg of peptides were incubated with 5 µl P. aeruginosa PAO1 cell lysate or PBS (untreated controls) at 37°C. After 2 hours, 6 µl of 2x SDS sample buffer was added to the samples and heated to 95°C for 5 min. Samples were analyzed on 10-20% Mini-PROTEAN tris-tricine gels (BIO-RAD #4563115) according to manufacturer's recommended protocol. Band intensities were quantified using the program ImageJ (Schneider, C. A., Rasband, W. S. and Eliceiri, K. W. 2012. NIH Image to ImageJ: 25 years of image analysis. Nature methods. 9: 671-675).

[7] = Table 3, peptides with amino acid substitution, 15°C

Compound: C[C@H](NC(=O)[C@H](CO)NC(=O)[C@H](CC(N)=O)NC(=O)[C@H](Cc1ccccc1)NC(=O)[C@H](CCCNC(=N)N)NC(=O)[C@H](CCCNC(=N)N)NC(=O)[C@H](CCCNC(=N)N)NC(=O)CNC(=O)[C@H](CC(=O)O)NC(=O)[C@H](CCCNC(=N)N)NC(=O)[C@H](CCCNC(=N)N)NC(=O)[C@H](CCCNC(=N)N)NC(=O)[C@H](CCC(N)=O)NC(=O)[C@H](CCCNC(=N)N)NC(=O)[C@H](CCCNC(=N)N)NC(=O)[C@H](CCCCN)NC(=O)[C@H](CCCCN)NC(=O)[C@H](CCCNC(=N)N)NC(=O)CNC(=O)[C@H](Cc1ccc(O)cc1)NC(=S)Nc1ccc2c(c1)C(=O)OC21c2ccc(O)cc2Oc2cc(O)ccc21)C(=O)N[C@@H](CC(=O)O)C(=O)N[C@@H](Cc1ccc(O)cc1)C(=O)N[C@@H](CCCCN)C(=O)NCC(=O)N1CCC[C@H]1C(=O)N[C@@H](CCCNC(=N)N)C(=O)N[C@@H](CCCNC(=N)N)C(=O)N[C@@H](CCCNC(=N)N)C(=O)N[C@@H](CCCCN)C(=O)N[C@@H](C)C(=O)N[C@@H](CC(=O)O)C(N)=O [SEQ ID NO: 51] ({FITC}-YGRKKRRQRRRDGRRRFNSADYKGPRRRKAD-NH2)
- MBIC50 ([1]; peptide concentration leading to 50% biofilm reduction, MHB, 37°C, 24 hours, without agitation): below 0.25 mg/L
- concentration up to which no toxic effect was shown [2]: ≤ 64 µg/mL

Compound: Ac-DRRRFNSADYKGPRRAKAD-NH2 [SEQ ID NO: 28, AC-DRRRFNSADYKGPRRAKAD-NH2]
- effect on bacterial growth [3]: do not show an effect on bacterial growth
- Dissociation constant [4, 7]: no binding detected
- binding affinity to c-di-GMP, in words ([4]; compared to the core sequence / peptide of SEQ ID NO: 12): significantly reduced binding affinities

Compound: Ac-DRRRFNSADYKGPRRAKAD-NH2 [compound 28]
- MBIC50 ([1]; PAO1, 24 h): 1 to 2 mg/L
- remaining at 2 h [5]: 23%
- Dissociation constant [4, 7]: no binding
- Remaining peptide after 2 hours [6]: 11%

Compound: Ac-DRRRFNSADYKGPRRRKAD-NH2 [SEQ ID NO: 12, AC-DRRRFNSADYKGPRRRKAD-NH2]
- MBIC50 compared to the MBIC50 of the peptide of SEQ ID NO: 28 ([1]; lower): about 4 fold
- effect on bacterial growth [3]: do not show an effect on bacterial growth
- concentration up to which no toxic effect was shown [2]: ≤ 64 µg/mL
- remaining at 2 h [5]: 32%
- Kd ([4]; Table 3, peptides with amino acid substitution, 15°C, pH 8.0, read-out: Dissociation constant): 0.17 µM
- Remaining peptide after 2 hours [6]: 11%
